Marks after values point to notes of the source that are not given here.
Key:
Type in all cases: in vivo
Settings in all cases: 100 = 100% disease control
[1] = test system: Erysiphe graminis f. sp. tritici; experiment: Test J: wheat powdery mildew on wheat seedlings, sprayed the day before inoculation, visual disease rating
Procedure, shortened: (§1)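 Spray suspension: acetone 3% of final volume, then 50/50 acetone/water plus 250 ppm Trem® 014. Applied to run-off on seedlings at 200 ppm (≈500 g/ha); starred entries tested at 40 ppm.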

[2] = test system: Puccinia recondita f. sp. tritici; experiment: Test H: wheat leaf rust, test suspension sprayed after inoculation of wheat seedlings, visual disease rating
Procedure, shortened: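 Wheat seedlings inoculated with P. recondita spores, held 24 h saturated at 20 °C, then 2 days in growth chamber at 20 °C; compound suspension (acetone/water with Trem 014) sprayed to run-off afterwards. Rated visually; 200 ppm (≈500 g/ha) unless marked *, which denotes 40 ppm.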

Septoria tritici = experiment: Test G: wheat leaf blotch on wheat seedlings, sprayed the day before inoculation, visual disease rating
Procedure, shortened: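 Wheat seedlings were sprayed with compound suspensions, 200 ppm unless starred (40 ppm). After next-day spore inoculation, plants spent 48 h saturated at 24° C, then 19 days at 20° C, when disease was rated visually.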

Septoria nodorum = experiment: Test F: wheat glume blotch on wheat seedlings, sprayed the day before inoculation, visual disease rating
Procedure, shortened: as §1

Alternaria solani = experiment: Test D: tomato early blight, sprayed the day before inoculation, visual disease rating
Procedure, shortened: as §1

Botrytis cinerea = experiment: Test C: tomato Botrytis on tomato seedlings, sprayed the day before inoculation, visual disease rating
Procedure, shortened: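 Spray to run-off on tomato seedlings; test conc. 200 ppm (≈500 g/ha), some entries 40 ppm. Formulation: acetone 3% of final vol., then acetone/water 50:50 + 250 ppm polyhydric alcohol ester surfactant.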

[3] = test system: Puccinia recondita f. sp. tritici; experiment: Test I: wheat leaf rust on wheat seedlings, sprayed the day before inoculation, visual disease rating
Procedure, shortened: as §1

[4] = 40 ppm (marked *), 0 = no control
[5] = 200 ppm, 0 = no control relative to controls

| SMILES | Test J disease control rating [1, 4] | Test H disease control rating [2, 4] | Test G disease control rating (Septoria tritici; [4]) | Test F disease control rating (Septoria nodorum; [4]) | Test D disease control rating (Alternaria solani; [4]) | Test C disease control rating (Botrytis cinerea; [4]) | Test I disease control rating [3, 4] | Test J disease control rating [1, 5] [%] | Test H disease control rating [2, 5] [%] | Test G disease control rating (Septoria tritici; [5]) [%] | Test F disease control rating (Septoria nodorum; [5]) [%] | Test D disease control rating (Alternaria solani; [5]) [%] | Test C disease control rating (Botrytis cinerea; [5]) [%] | Test I disease control rating [3, 5] [%] |
| --- | --- | --- | --- | --- | --- | --- | --- | --- | --- | --- | --- | --- | --- | --- |
| COc1ccc(F)c(-c2c(Cl)nc(C)n2-c2cccc(C)c2)c1F [compound 335] | 99* % | 0* % | 91* % | 82* % | 100* % | 100* % | 99* % |  |  |  |  |  |  |  |
| Cc1nc(Br)c(-c2c(F)cccc2F)n1-c1ccc2ccccc2c1 [compound 336] | 87* % | 0* % | 96* % | 99* % | 88* % | 99* % | 74* % |  |  |  |  |  |  |  |
| Cc1nc(Br)c(-c2c(F)cccc2F)n1-c1ccc(Cl)c2ccccc12 [compound 337] | 0* % | 0* % | 23* % | 0* % | 0* % | 19* % | 0* % |  |  |  |  |  |  |  |
| Cc1nc(Br)c(-c2ccc(Cl)cc2)n1-c1ccc(F)cc1Cl [compound 338] |  |  |  |  |  |  |  | 99 | 0 | 93 | 80 | 100 | 100 | 99 |
| Cc1nc(Br)n(-c2ccc(F)cc2Cl)c1-c1ccc(Cl)cc1 [compound 339] |  |  |  |  |  |  |  | 96 | 0 | 95 | 78 | 99 | 100 | 96 |
| Cc1nc(Br)c(-c2ccc(Cl)c(F)c2)n1-c1ccc(F)cc1Cl [compound 340] |  |  |  |  |  |  |  | 95 | 0 | 92 | 0 | 98 | 99 | 94 |
| Fc1cccc(F)c1-n1c(-c2ccc(Cl)cc2)cnc1Cl [compound 341] | 0* % | 9* % | 0* % | 0* % | 24* % | 91* % | 0* % |  |  |  |  |  |  |  |
| Fc1cc(-n2cnc(Br)c2-c2c(F)ccc(F)c2F)ccc1Cl [compound 342] |  |  |  |  |  |  |  | 99 | 0 | 95 | 0 | 99 | 100 | 98 |
| Fc1ccc(F)c(-c2c(Br)ncn2-c2ccc(Cl)cc2)c1Cl [compound 343] |  |  |  |  |  |  |  | 98 | 0 | 94 | 64 | 97 | 100 | 93 |
| Cc1nn(C)c(Cc2ccc(Cl)cc2)c1-c1ccc(F)cc1Cl [compound 344] |  |  |  |  |  |  |  | 99 | 17 | 95 | 0 | 0 | 100 | 89 |
| Cc1ncn(-c2ccc(Cl)c(F)c2)c1-c1ccnc(Br)c1 [compound 345] |  |  |  |  |  |  |  | 0 | 0 | 27 | 0 | 0 | 64 | 0 |
| Cc1ncn(-c2ccc(Cl)c(F)c2)c1-c1cncc(Br)c1 [compound 346] |  |  |  |  |  |  |  | 0 | 9 | 38 | 0 | 0 | 99 | 9 |
| Cc1ncn(-c2ccc(Cl)c(F)c2)c1-c1ccc(Br)cn1 [compound 347] |  |  |  |  |  |  |  | 0 | 26 | 70 | 0 | 0 | 93 | 9 |
| Cc1ncn(-c2ccc(Cl)c(F)c2)c1-c1cccnc1Cl [compound 348] |  |  |  |  |  |  |  | 27 | 0 | 8 | 0 | 0 | 0 | 0 |
| Fc1cc(-n2c(Cl)nc(Br)c2-c2c(F)ccc(F)c2F)ccc1Cl [compound 350] |  |  |  |  |  |  |  | 100 | 0 | 91 | 82 | 100 | 99 | 99 |
| Fc1ccc(F)c(-c2c(Br)nc(Cl)n2-c2ccc(Cl)cc2)c1F [compound 351] |  |  |  |  |  |  |  | 100 | 54 | 93 | 99 | 100 | 100 | 100 |
| Fc1ccc(-n2c(Cl)nc(Br)c2-c2c(F)ccc(F)c2F)cc1 [compound 352] |  |  |  |  |  |  |  | 77 | 18 | 92 | 87 | 100 | 100 | 97 |
| Fc1cc(-n2c(Cl)nc(CCl)c2-c2ccnc(Br)c2)ccc1Cl [compound 353] |  |  |  |  |  |  |  | 0 | 0 | 8 | 0 | 0 | 0 | 41 |
| Cc1nc(Cl)n(-c2ccc(Cl)c(F)c2)c1-c1ccnc(Br)c1 [compound 354] |  |  |  |  |  |  |  | 97 | 0 | 93 | 0 | 99 | 100 | 98 |
| Fc1cc(-n2c(Cl)nc(CCl)c2-c2cncc(Br)c2)ccc1Cl [compound 355] |  |  |  |  |  |  |  | 0 | 0 | 3 | 0 | 0 | 0 | 28 |
| Cc1nc(Cl)n(-c2ccc(Cl)c(F)c2)c1-c1cncc(Br)c1 [compound 356] |  |  |  |  |  |  |  | 0 | 17 | 72 | 0 | 57 | 98 | 0 |

— patent US20110045101A1, “FUNGICIDAL SUBSTITUTED AZOLES” (E.I. Du Pont De Nemours and Company, priority 2009, published 2011)
